Assay results: patent publication EP1889831A2, “Diazenedicarboxamides as inhibitors of D-alanine: D-alanine ligase (Ddl)” (University of Ljubljana, priority 2006, dated 2008)
In brackets after ≈: the same amount, converted by molar mass.

Assays:
[1] = test system: E.coli SM 1411; test: Determination of antimicrobial activity (MIC, broth microdilution); type: cell-based; conditions: IsoSensitest broth, inoculum 10^4 cells per mL, 16 h at 37 °C; unit assumed
Procedure: (§1) Minimal inhibitory concentrations (MICs) of compounds were determined by broth microdilution in IsoSensitest broth (Oxoid, Basingstoke, UK) using an inoculum of 10^4 cells per mL for E. coli or 10^6 cells per mL for S. aureus. The compounds under investigation were prepared in a 2-fold dilution series in 50% dimethyl sulfoxide (Sigma-Aldrich, Dorset, UK). Microwell plates with 96 wells (Nunc, Fisher Scientific, Loughborough, UK) containing the antimicrobial agent and bacterial suspension were incubated for 16 h at 37 °C in a Spectramax 384 plus microwell plate reader (Molecular Devices, Abingdon, UK), running SOFTmax PRO 3.1.1 software. Optical density readings (600 nm) were taken at 10 min intervals. Plates were shaken for 30 s before each reading. The MIC was taken as the lowest concentration of antimicrobial agent that prevented growth. The invention is further described in connection with the following non-limiting examples: […]

[2] = test system: E.coli 1411; test: as above; type: cell-based; conditions: IsoSensitest broth, inoculum 10^4 cells per mL, 16 h at 37 °C; unit assumed
Procedure: as §1

[3] = test system: S.aureus 8325-4; test: as above; type: cell-based; conditions: IsoSensitest broth, inoculum 10^6 cells per mL, 16 h at 37 °C; unit assumed
Procedure: as §1

[4] = molecular target: DdlB (Escherichia coli, UniProt P07862); test: Determination of inhibitory activity on DdlB (colorimetric malachite green method); type: biochemical, E. coli; conditions: 37 °C, 700 µM D-Ala, 500 µM ATP, 30 min incubation, seven inhibitor concentrations
Procedure: The D-Ala-adding activity of DdlB ligase was monitored by the detection of orthophosphate generated during the reaction based on the colorimetric malachite green method (Walsh, A. et al. J Bacteriol. 1999, 181: 5395). […] All compounds were soluble in the assay mixture containing 5% DMSO. After 30 min of incubation, 100 µL Biomol® reagent was added. After 5 min, absorbance was read at 650 nm. Residual activity was calculated with respect to a similar assay without inhibitor. IC50 constants were determined by measuring residual activity at seven different inhibitor concentrations and represent the concentration of inhibitors where RA is 50%.

Structure (SMILES)	MIC E.coli SM 1411 [1] [µg/mL]	MIC E.coli 1411 [2] [µg/mL]	MIC S.aureus 8325-4 [3] [µg/mL]	IC50 [4] [µM]
O=C(N=NC(=O)NCc1ccccn1)NCCCl	> 256	> 256	> 256	119
O=C(N=NC(=O)NCc1ccccn1)NCc1ccccn1	> 256	> 256	> 256	158
CC(C)c1ccc(NC(=O)N=NC(=O)NCCCl)cc1	> 256	> 256	> 256	49
CCC(C)c1ccc(NC(=O)N=NC(=O)NCCCl)cc1 (stereo not shown)	> 256	> 256	> 256	25
O=C(N=NC(=O)NCc1cccnc1)NCc1cccnc1	> 256	> 256	> 256	123
O=C(N=NC(=O)NCC(Cl)(Cl)Cl)NCC(Cl)(Cl)Cl	> 256	> 256	> 256	187
O=C(/N=N/C(=O)NCCCl)NCCCl	> 256	> 256	> 256	133
CC(C)(C)c1ccc(NC(=O)N=NC(=O)NCCCl)cc1	> 256	> 256	> 256	37
O=C(N=NC(=O)Nc1ccccc1)NCc1ccccn1	64 (≈ 226 µM)	64 (≈ 226 µM)	64 (≈ 226 µM)	111
O=C(N=NC(=O)Nc1cccc(Cl)c1)NCc1cccnc1	64 (≈ 201 µM)	64 (≈ 201 µM)	256 (≈ 806 µM)	15
CC(NC(=O)N=NC(=O)Nc1ccccc1)c1ccccc1 (stereo not shown)	> 256	> 256	> 256	41
O=C(N=NC(=O)Nc1ccccc1)NCc1cccnc1 [drawing 18]	> 256	> 256	> 256	76
O=C(N=NC(=O)Nc1ccccc1)NCc1cccnc1 [drawing 22]	64 (≈ 226 µM)	64 (≈ 226 µM)	128 (≈ 452 µM)	36
